The supplement of paper PMC7017272
± gives the standard deviation of the averaged measurements.

Columns and labels:
Settings in all cases: treatment time: 3 days
[1] = system: UT-SCC-73; experiment: drug sensitivity score (DSS); higher = more sensitive; extreme values may be limits of the assay
Outline: (§1)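 HPV-negative HNSCC cell lines were plated at 500 cells/well in 384-well plates, either on plastic, on wells coated with Matrigel or Myogel (500 µg/mL), or embedded in Matrigel or Myogel plus rat collagen I. Each compound was tested at five 10-fold concentrations over 3 days. Viability was measured by CellTiter-Glo 2.0 luminescence, and IC50, maximal inhibition and drug sensitivity score came from percent-inhibition dose–response curves fitted in the FIMM pipeline after normalisation to vehicle (0.1% DMSO) and cell-killing control wells.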

[2] = system: UT-SCC-81; experiment: as above
Outline: as §1

[3] = system: UT-SCC-42A; experiment: as above
Outline: as §1

[4] = system: UT-SCC-28; experiment: as above
Outline: as §1

[5] = system: UT-SCC-42B; experiment: as above
Outline: as §1

[6] = system: UT-SCC-40; experiment: as above
Outline: as §1

[7] = system: UT-SCC-44; experiment: as above
Outline: as §1

[8] = system: UT-SCC-106A; experiment: as above
Outline: as §1

[9] = system: UT-SCC-8; experiment: as above
Outline: as §1

[10] = system: UT-SCC-73; experiment: maximal % inhibition of viability relative to DMSO; higher = stronger effect
Procedure: (§2)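 HNSCC cell lines (500 cells/well, 384-well) were cultured on plastic, on top of (2D) or embedded (3D) in Matrigel or human leiomyoma matrix Myogel (500 ug/mL; Myogel 3D mixed with rat collagen I). Cells were treated for 3 days with 5 ten-fold concentrations of each drug, and viability was read by CellTiter-Glo. Viability was normalised to DMSO and benzethonium chloride controls and fitted with the FIMM DSRT pipeline to give IC50 (nM), maximal % inhibition and DSS. Suffixes _1/_2/_3 are replicates. Only inhibition-mode (IC50) fits are kept.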

[11] = system: UT-SCC-81; experiment: as above
Procedure: as §2

[12] = system: UT-SCC-42A; experiment: as above
Procedure: as §2

[13] = system: UT-SCC-28; experiment: as above
Procedure: as §2

[14] = system: UT-SCC-42B; experiment: as above
Procedure: as §2

[15] = system: UT-SCC-40; experiment: as above
Procedure: as §2

[16] = system: UT-SCC-44; experiment: as above
Procedure: as §2

[17] = system: UT-SCC-106A; experiment: as above
Procedure: as §2

[18] = system: UT-SCC-8; experiment: as above
Procedure: as §2

[19] = system: UT-SCC-14; experiment: as above
Procedure: as §2

[20] = system: UT-SCC-24B; experiment: as above
Procedure: as §2

[21] = culture condition: embedded in Matrigel
[22] = culture condition: embedded in Myogel + collagen I
[23] = culture condition: on top of Matrigel
[24] = culture condition: on top of Myogel
[25] = culture condition: plastic 2D (no matrix)

Q: Which results are given for `Cn1cnc2c(F)c(Nc3ccc(Br)cc3F)c(C(=O)NOCCO)cc21` [Binimetinib]?
A: drug sensitivity score [1, 21]: 14.6 ± 0.67 DSS; drug sensitivity score [1, 22]: 9.93 ± 3.5 DSS; drug sensitivity score [1, 23]: 14.3 ± 0.8 DSS; drug sensitivity score [1, 24]: 8.03 ± 1.4 DSS; drug sensitivity score [1, 25]: 12 ± 1 DSS; drug sensitivity score [2, 21]: 20.4 ± 0.21 DSS; drug sensitivity score [2, 22]: 0.933 ± 0.55 DSS; drug sensitivity score [2, 23]: 11 ± 1.7 DSS; drug sensitivity score [2, 24]: 3.7 ± 1.1 DSS; drug sensitivity score [2, 25]: 4.4 ± 0.69 DSS; drug sensitivity score [3, 21]: 11.2 ± 1.7 DSS; drug sensitivity score [3, 22]: 5.2 ± 2.5 DSS; drug sensitivity score [3, 23]: 12.8 ± 2.1 DSS; drug sensitivity score [3, 24]: 5.1 ± 2.7 DSS; drug sensitivity score [3, 25]: 7.97 ± 0.65 DSS; drug sensitivity score [4, 21]: 6.5 ± 2.1 DSS; drug sensitivity score [4, 22]: 0 DSS; drug sensitivity score [4, 23]: 4.43 ± 1.8 DSS; drug sensitivity score [4, 25]: 2.87 ± 2.4 DSS; drug sensitivity score [5, 21]: 16 ± 0.97 DSS; drug sensitivity score [5, 23]: 7.13 ± 3.2 DSS; drug sensitivity score [5, 24]: 1.77 ± 0.51 DSS; drug sensitivity score [5, 25]: 3.47 ± 0.32 DSS; drug sensitivity score [6, 21]: 16.3 ± 2.6 DSS; drug sensitivity score [6, 22]: 10.8 ± 4.3 DSS; drug sensitivity score [6, 23]: 11.7 ± 2.1 DSS; drug sensitivity score [6, 24]: 5.87 ± 1.8 DSS; drug sensitivity score [6, 25]: 7.63 ± 2 DSS; drug sensitivity score [7, 21]: 13.9 ± 2.2 DSS; drug sensitivity score [7, 22]: 3.57 ± 1 DSS; drug sensitivity score [7, 23]: 11.4 ± 0.57 DSS; drug sensitivity score [7, 24]: 5.07 ± 1.4 DSS; drug sensitivity score [7, 25]: 7.77 ± 4.3 DSS; drug sensitivity score [8, 21]: 11.8 ± 0.81 DSS; drug sensitivity score [8, 22]: 0.567 ± 0.9 DSS; drug sensitivity score [8, 23]: 12.8 ± 2.5 DSS; drug sensitivity score [8, 24]: 1.67 ± 0.47 DSS; drug sensitivity score [8, 25]: 11.7 ± 0.51 DSS; drug sensitivity score [9, 21]: 5.73 ± 4.6 DSS; drug sensitivity score [9, 22]: 1.97 ± 3.4 DSS; drug sensitivity score [9, 23]: 3.73 ± 2.5 DSS; drug sensitivity score [9, 24]: 4.67 ± 4.2 DSS; drug sensitivity score [9, 25]: 3.83 ± 3.4 DSS; maximal % inhibition of viability [10, 21]: 80.5 ± 1.5%; maximal % inhibition of viability [10, 22]: 53.5 ± 17%; maximal % inhibition of viability [10, 23]: 76.8 ± 1.7%; maximal % inhibition of viability [10, 24]: 60.7 ± 0.93%; maximal % inhibition of viability [10, 25]: 66.9 ± 4.2%; maximal % inhibition of viability [11, 21]: 85.5 ± 1%; maximal % inhibition of viability [11, 22]: 18.7 ± 4.7%; maximal % inhibition of viability [11, 23]: 76.3 ± 3.8%; maximal % inhibition of viability [11, 24]: 23.5 ± 3.9%; maximal % inhibition of viability [11, 25]: 38.7 ± 2.1%; maximal % inhibition of viability [12, 21]: 48.9 ± 1.6%; maximal % inhibition of viability [12, 22]: 24.5 ± 4.6%; maximal % inhibition of viability [12, 23]: 52.2 ± 5.8%; maximal % inhibition of viability [12, 24]: 28.6 ± 5.7%; maximal % inhibition of viability [12, 25]: 46.3 ± 2.8%; maximal % inhibition of viability [13, 21]: 38.5 ± 2.6%; maximal % inhibition of viability [13, 22]: 12.5 ± 11%; maximal % inhibition of viability [13, 23]: 31.2 ± 2.9%; maximal % inhibition of viability [13, 25]: 21.9 ± 6.2%; maximal % inhibition of viability [14, 21]: 66.2 ± 7.5%; maximal % inhibition of viability [14, 23]: 48.5 ± 15%; maximal % inhibition of viability [14, 24]: 24.8 ± 7%; maximal % inhibition of viability [14, 25]: 31.3 ± 8.6%; maximal % inhibition of viability [15, 21]: 77.3 ± 2.2%; maximal % inhibition of viability [15, 22]: 58.1 ± 13%; maximal % inhibition of viability [15, 23]: 72.4 ± 2%; maximal % inhibition of viability [15, 24]: 44.7 ± 8.7%; maximal % inhibition of viability [15, 25]: 52.8 ± 6%; maximal % inhibition of viability [16, 21]: 70.1 ± 4.2%; maximal % inhibition of viability [16, 22]: 31.5 ± 8.1%; maximal % inhibition of viability [16, 23]: 52.9 ± 11%; maximal % inhibition of viability [16, 24]: 34 ± 5.1%; maximal % inhibition of viability [16, 25]: 45 ± 6.7%; maximal % inhibition of viability [17, 21]: 48.3 ± 3.9%; maximal % inhibition of viability [17, 22]: 16.4 ± 2.9%; maximal % inhibition of viability [17, 23]: 60.1 ± 2.9%; maximal % inhibition of viability [17, 24]: 20.6 ± 2.3%; maximal % inhibition of viability [17, 25]: 62.2 ± 1.8%; maximal % inhibition of viability [18, 21]: 40.9 ± 26%; maximal % inhibition of viability [18, 22]: 19.8 ± 23%; maximal % inhibition of viability [18, 23]: 28.9 ± 14%; maximal % inhibition of viability [18, 24]: 29 ± 15%; maximal % inhibition of viability [18, 25]: 31 ± 25%; maximal % inhibition of viability [19, 21]: 29.8 ± 10%; maximal % inhibition of viability [19, 22]: 33.8 ± 15%; maximal % inhibition of viability [19, 23]: 33.3 ± 9.7%; maximal % inhibition of viability [19, 24]: 32.4 ± 24%; maximal % inhibition of viability [19, 25]: 25.9 ± 25%; maximal % inhibition of viability [20, 21]: 60.3 ± 0.64%; maximal % inhibition of viability [20, 22]: 49.6 ± 11%; maximal % inhibition of viability [20, 23]: 50.7 ± 2.5%; maximal % inhibition of viability [20, 24]: 28.6 ± 5.1%; maximal % inhibition of viability [20, 25]: 69.4 ± 4.1%
